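Dose response: 5 concentrations. Exposure: 48 h. Format: 96-well plates. Endpoint: linear interpolation; highest concentration if not reached. GI50 marks 50% less growth.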 Calls of active or inactive are those of the source. No stated cut-off is given here; in the data, active = GI50 up to about 1.1 µM and inactive = higher.
Legend:
Experiment in all cases: NCI tumour cell line growth inhibition, 48 h
COLO 205 = test system: COLO 205
UO-31 = test system: UO-31
KM12 = test system: KM12
ACHN = test system: ACHN
U-251 = test system: U-251
OVCAR-4 = test system: OVCAR-4
MOLT-4 = test system: MOLT-4
LXFL 529 = test system: LXFL 529
EKVX = test system: EKVX
TK-10 = test system: TK-10
CCRF-CEM = test system: CCRF-CEM
HCT-15 = test system: HCT-15
SR = test system: SR
HCT-116 = test system: HCT-116
SNB-19 = test system: SNB-19
SNB-78 = test system: SNB-78

| SMILES | GI50 (COLO 205) | GI50 (UO-31) | GI50 (KM12) | GI50 (ACHN) | GI50 (U-251) | GI50 (OVCAR-4) | GI50 (MOLT-4) | GI50 (LXFL 529) | GI50 (EKVX) | GI50 (TK-10) | GI50 (CCRF-CEM) | GI50 (HCT-15) [µM] | GI50 (SR) | GI50 (HCT-116) | GI50 (SNB-19) | GI50 (SNB-78) |
| --- | --- | --- | --- | --- | --- | --- | --- | --- | --- | --- | --- | --- | --- | --- | --- | --- |
| NN/C(Cc1ccccc1)=N/NC(N)=S | > 100 µM (inactive) | > 100 µM (inactive) | 96.4 µM (inactive) | 62.5 µM (inactive) | > 100 µM (inactive) | > 100 µM (inactive) | 49.9 µM (inactive) | > 100 µM (inactive) | 97.3 µM (inactive) | > 100 µM (inactive) | 54.1 µM (inactive) | 72.6 | – | – | – | – |
| Cc1cc2occ(C)c(=O)c2c2c1OC(C)(C)S2 | > 100 µM (inactive) | > 100 µM (inactive) | > 100 µM (inactive) | > 100 µM (inactive) | > 100 µM (inactive) | > 100 µM (inactive) | 37.3 µM (inactive) | > 100 µM (inactive) | > 100 µM (inactive) | > 100 µM (inactive) | 51.1 µM (inactive) | > 100 | 65.9 µM (inactive) | > 100 µM (inactive) | > 100 µM (inactive) | – |
| Cc1ccccc1C1SCc2nc3ccccc3n21 (centres undefined) | > 100 µM (inactive) | > 100 µM (inactive) | > 100 µM (inactive) | > 100 µM (inactive) | > 100 µM (inactive) | – | – | – | > 100 µM (inactive) | > 100 µM (inactive) | > 100 µM (inactive) | – | – | 4.72 µM (inactive) | > 100 µM (inactive) | > 100 µM (inactive) |
| O=C1CCC2(c3ccc(F)cc3)Nc3ccccc3N12 (centres undefined) | > 100 µM (inactive) | > 100 µM (inactive) | > 100 µM (inactive) | > 100 µM (inactive) | > 100 µM (inactive) | > 100 µM (inactive) | > 100 µM (inactive) | > 100 µM (inactive) | > 100 µM (inactive) | > 100 µM (inactive) | > 100 µM (inactive) | > 100 | – | – | – | > 100 µM (inactive) |
| N=C(N)/N=C(/C=C/c1ccccc1)CC1OC(=O)c2ccccc21 (centres undefined) | > 100 µM (inactive) | > 100 µM (inactive) | > 100 µM (inactive) | > 100 µM (inactive) | > 100 µM (inactive) | > 100 µM (inactive) | > 100 µM (inactive) | > 100 µM (inactive) | > 100 µM (inactive) | – | 86.9 µM (inactive) | > 100 | > 100 µM (inactive) | > 100 µM (inactive) | > 100 µM (inactive) | – |
| O=C(N/C(=C\c1ccc([N+](=O)[O-])cc1)c1nc2ccccc2s1)c1ccccc1 | 58.3 µM (inactive) | 24.3 µM (inactive) | 22.5 µM (inactive) | 29.2 µM (inactive) | 31.6 µM (inactive) | 29.9 µM (inactive) | 19.1 µM (inactive) | 18.8 µM (inactive) | – | 22.6 µM (inactive) | 19.1 µM (inactive) | 27.2 | – | 27 µM (inactive) | 32.8 µM (inactive) | 37.4 µM (inactive) |
| CCOC(=O)CC(NC(=O)c1nc[nH]c1[N+](=O)[O-])C(=O)OCC (centres undefined) | 49.2 µM (inactive) | 77.6 µM (inactive) | 65.8 µM (inactive) | 42.2 µM (inactive) | 15.3 µM (inactive) | 50.7 µM (inactive) | 43.1 µM (inactive) | 41.5 µM (inactive) | 50.1 µM (inactive) | 24 µM (inactive) | 37.4 µM (inactive) | 78.5 | 44.3 µM (inactive) | 43.4 µM (inactive) | 56.6 µM (inactive) | – |
| CCC1CC(C)=CCN1S(=O)(=O)c1ccc(C)cc1 (centres undefined) | 16.5 µM (inactive) | 11.3 µM (inactive) | 23.4 µM (inactive) | 37 µM (inactive) | – | 39 µM (inactive) | 28.2 µM (inactive) | 12.9 µM (inactive) | 31.8 µM (inactive) | – | 4.9 µM (inactive) | 6.52 | 5.66 µM (inactive) | 9.82 µM (inactive) | 28.8 µM (inactive) | – |
| Cc1cc2c(C)n(Cc3ccc(Cl)cc3Cl)nc2c(C(=O)O)c1C | > 100 µM (inactive) | > 100 µM (inactive) | – | > 100 µM (inactive) | > 100 µM (inactive) | – | > 100 µM (inactive) | > 100 µM (inactive) | > 100 µM (inactive) | > 100 µM (inactive) | > 100 µM (inactive) | 91.2 | – | > 100 µM (inactive) | > 100 µM (inactive) | > 100 µM (inactive) |
| COc1cccc(NC(=O)CSc2nnc(Cc3ccccc3)o2)c1 | > 100 µM (inactive) | > 100 µM (inactive) | > 100 µM (inactive) | 23.3 µM (inactive) | > 100 µM (inactive) | > 100 µM (inactive) | > 100 µM (inactive) | > 100 µM (inactive) | – | > 100 µM (inactive) | > 100 µM (inactive) | > 100 | – | > 100 µM (inactive) | > 100 µM (inactive) | > 100 µM (inactive) |

From ChEMBL document CHEMBL1201862, “PubChem BioAssay data set” (2004)
